The record followed here is the supplement of paper PMC10949913.

Holding throughout (test): area under concentration-response curve (viability) (AUC (a.u.)); higher = less active
What all share (details): 48 h

One test concerns CU-ACC2. In outline:
(§1)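 After 48 h of treatment with 23 nL of each library compound at 11 concentrations, three adrenocortical carcinoma cell lines in 1,536-well plates (500–1,000 cells/well, 5 µL medium) were given CellTiter-Glo for 15 minutes at room temperature. Luminescence was then read and normalised per plate to vehicle and empty-well controls. AC50 and area under the curve were drawn from fitted concentration-response curves of inhibitory or non-responding classes only.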

A further test relates to NCI-H295R. The essentials:
as §1

For a further test, the system named is CU-ACC1. The essentials:
as §1

Turning to `COC1=C(N2CCNC(C)C2)C(=CC3=C1N(\C=C(C(O)=O)/C3=O)C4CC4)F` (centres undefined), the “area under concentration-response curve” value came to 609 with CU-ACC2, 509 in the test with NCI-H295R and 543 in the test with CU-ACC1.
For `CN1[C@@H]2CCC[C@H]1CC(NC(=O)c1nn(C)c3ccccc13)C2` (some centres undefined) the same measures were 584, 490 and 511.
For `COC[C@@H](NC(C)=O)C(=O)NCc1ccccc1`, the “area under concentration-response curve” value was determined as 619 in the test on CU-ACC2, 560 with NCI-H295R and 503 with CU-ACC1.
On to `COc1ccccc1N1CCN(CC(O)COc2cccc3ccccc23)CC1` (centres undefined), for which the “area under concentration-response curve” value in the test with CU-ACC2 was 515; in the test on NCI-H295R, 501; with CU-ACC1 it was 458.
On the same counts, the results for `CN1\C(=C(\O)C2=CC=CC=C2[S+]1([O-])=O)C(=O)NC3=NC=C(C)S3` are 523, 511 and 461.
For `Cc1nnc(C(C)C)n1C1CC2CCC(C1)N2CC[C@H](NC(=O)C1CCC(F)(F)CC1)c1ccccc1` (some centres undefined), the “area under concentration-response curve” value with CU-ACC2 is 533; in the test with NCI-H295R, 559; in the test on CU-ACC1, 561.
On the same counts, the results for `CNC1CCCN(C1)C2=C(F)C=C3C(=O)\C(=C/N(C4CC4)C3=C2OC)C(O)=O` (centres undefined) are 655, 564 and 530.
On the same counts, the results for `COc1cc(C[C@@H](CO)[C@H](CO)Cc2ccc(O)c(OC)c2)ccc1O` are 575, 517 and 534.
Regarding `C[C@H](CCC(=O)O)[C@H]1CC[C@H]2[C@@H]3[C@@H](O)C[C@@H]4C[C@H](O)CC[C@]4(C)[C@H]3CC[C@]12C`, the “area under concentration-response curve” value was found to be 496 in the test on CU-ACC2, 538 in the test with NCI-H295R and 519 in the test with CU-ACC1.
On the same counts, the results for `CCOC(=O)N1CCN(/[N+]([O-])=N/Oc2ccc([N+](=O)[O-])cc2[N+](=O)[O-])CC1` are 644, 521 and 544.
On the same counts, the results for `C[C@]12CC(=O)[C@H]3[C@@H](CC\C4=C\C(=O)\C=C/[C@]34C)[C@@H]1CC[C@]2(O)C(=O)CO` are 652, 580 and 547.
As to `OC(Cn1cncn1)(Cn1cncn1)c1ccc(F)cc1F`, the “area under concentration-response curve” value in the test on CU-ACC2 amounted to 546; with NCI-H295R it was 514; with CU-ACC1 it was 466.
With `COC1=C(NC2=NC=C(Cl)C(=N2)N[C@@H]3[C@H]\4C[C@@H](\C=C4)[C@H]3C(N)=O)C=CC5=C1CCC(CC5)N6CCOCC6` (some centres undefined), the “area under concentration-response curve” value in the test on CU-ACC2 came to 600; in the test on NCI-H295R it was 460; in the test with CU-ACC1, 526.
Turning to `CNC[C@H](O)c1ccc(O)c(O)c1`, the “area under concentration-response curve” value in the test on CU-ACC2 came out at 608; in the test with NCI-H295R, 592; with CU-ACC1 it was 530.
On the same counts, the results for `Oc1ccc(OCc2ccccc2)cc1` are 353, 417 and 378.
As for `CN(Cc1cnc2nc(N)nc(N)c2n1)c1ccc(C(=O)N[C@@H](CCC(=O)O)C(=O)O)cc1`, the entries for the “area under concentration-response curve” value in the test on CU-ACC2, in the test with NCI-H295R and in the test on CU-ACC1 were 615, 539 and 508, respectively.
Regarding `CC(Oc1ccc(O)cc1)(P(=O)(O)O)P(=O)(O)O`, the “area under concentration-response curve” value in the test with CU-ACC2 came out at 508; with NCI-H295R, 458; with CU-ACC1, 456.
On the same counts, the results for `O=[N+]([O-])c1ccc(-c2nc(-c3ccc(F)cc3)c(-c3ccncc3)[nH]2)cc1` are 567, 489 and 498.
On to `Cc1onc(-c2ccccc2)c1-c1ccc([S+](N)(=O)[O-])cc1`, for which the “area under concentration-response curve” value with CU-ACC2 was 570; with NCI-H295R it was 535; with CU-ACC1, 457.
For `CC(=O)OCC(=O)[C@@]12OC(C)(C)O[C@@H]1C[C@H]3[C@@H]4C[C@H](F)C/5=C/C(=O)/C=C\[C@]5(C)[C@@]4(F)[C@@H](O)C[C@]23C` the same measures were 528, 519 and 439.
With `CCCC1=NC(=C2[N]1NC(=N\C2=O)/C3=CC(=CC=C3OCC)[S+]([O-])(=O)N4CCN(CC)CC4)C`, the “area under concentration-response curve” value is 573 with CU-ACC2, 518 in the test with NCI-H295R and 462 with CU-ACC1.
On the same counts, the results for `CC(C)[C@H](N)C(=O)OCCOC[N]1C=NC2=C1\N=C(N)/NC2=O` are 394, 390 and 449.
On the same counts, the results for `[O-][S+]1(=O)/N=C(/NC2=CC(=CC=C2)NC(=O)CCl)C3=CC=CC=C13` are 557, 528 and 446.
As to `O=C1NC(=O)/C(=C/c2ccc(-c3ccc(F)cc3O)o2)S1`, the “area under concentration-response curve” value was found to be 611 in the test with CU-ACC2, 575 in the test on NCI-H295R and 580 in the test with CU-ACC1.
For `COC1=C2OC(=O)\C=C/C2=CC3=C1OC=C3` the same measures were 482, 475 and 420.
As for `O=C1NC(=O)/C(=C/c2ccc3nccnc3c2)S1`, the “area under concentration-response curve” value with CU-ACC2 is 443; in the test with NCI-H295R it was 496; in the test on CU-ACC1, 452.
For `C[C@H]1CN(C[C@H](Cc2ccccc2)C(=O)NCC(=O)O)CC[C@@]1(C)c1cccc(O)c1` the same measures were 662, 577 and 569.
As to `OC(=O)C1=CC=C(NC2=NC3=C(C\N=C(/C4=CC(=CC=C34)Cl)C5=C(F)C=CC=C5F)C=N2)C=C1`, the entries for the “area under concentration-response curve” value in the test with CU-ACC2, in the test with NCI-H295R and with CU-ACC1 were 559, 517 and 504, respectively.
Turning to `C=C(C)[C@@H]1CC[C@]2(C)CC[C@]3(C)[C@H](CC[C@@H]4[C@@]5(C)CC[C@H](O)C(C)(C)[C@@H]5CC[C@]43C)[C@@H]12`, the “area under concentration-response curve” value is 582 with CU-ACC2, 551 in the test on NCI-H295R and 484 in the test on CU-ACC1.
Regarding `C[C@]12CC[C@@H]3c4ccc(O)cc4CC[C@H]3[C@@H]1[C@@H](O)[C@@H](O)[C@@H]2O`, the “area under concentration-response curve” value with CU-ACC2 was 565; in the test on NCI-H295R it was 520; in the test with CU-ACC1 it was 494.
For `CCN1C[C@]2(OC(=O)c3ccccc3NC(C)=O)CC[C@H](OC)[C@@]34[C@@H]2C[C@@H]([C@@H]13)[C@@]1(O)C[C@H](OC)[C@H]2C[C@@H]4[C@]1(O)[C@H]2OC` the same measures were 499, 429 and 416.
On the same counts, the results for `COC1=CC=C(C=C1O)C/2=C/C(=O)C3=C(O2)C=C(O[C@@H]4O[C@H](CO[C@@H]5O[C@@H](C)[C@H](O)[C@@H](O)[C@H]5O)[C@@H](O)[C@H](O)[C@H]4O)C=C3O` are 582, 554 and 502.
For `CCn1c(=O)c2c(nc(/C=C/c3ccc(OC)c(OC)c3)n2C)n(CC)c1=O`, the “area under concentration-response curve” value was 434 in the test with CU-ACC2, 431 with NCI-H295R and 431 in the test with CU-ACC1.
As to `C#Cc1cccc(Nc2ncnc3cc4c(cc23)OCCOCCOCCO4)c1`, the “area under concentration-response curve” value was 599 in the test with CU-ACC2, 546 in the test with NCI-H295R and 462 in the test with CU-ACC1.
As for `C[C@@H]1CN[C@H]2[C@@H](C)[C@@]\3(CC[C@H]\4[C@@H]5C/C=C6/C[C@@H](O)CC[C@]6(C)[C@H]5CC4=C3C)O[C@@H]2C1`, the “area under concentration-response curve” value in the test with CU-ACC2 came to 433; in the test on NCI-H295R, 511; with CU-ACC1, 463.
On the same counts, the results for `CNC(=O)c1cccc(-c2ccc3c(N4CCOC[C@@H]4C)nc(N4CCOC[C@@H]4C)nc3n2)c1` are 545, 453 and 452.
On the same counts, the results for `O=C1Cc2cc(C(=O)NC3C[C@H]4CC[C@@H](C3)N4[S+](=O)([O-])CC3CCN(CCCC(F)(F)F)CC3)c(Cl)cc2N1` (some centres undefined) are 611, 539 and 525.
As to `Clc1ccc(-c2nc3sccn3c2/C=N/OCc2ccc(Cl)c(Cl)c2)cc1`, the “area under concentration-response curve” value was 549 in the test on CU-ACC2, 425 in the test on NCI-H295R and 490 with CU-ACC1.
